Assay results from PubChem BioAssay AID1645867 (Buhrlage Lab, Dana-Farber Cancer Institute and Novartis …, 2021).
The source made the active and inactive calls. The rule behind the calls is not given here.

Target: Ubiquitin carboxyl-terminal hydrolase isozyme L1 (Homo sapiens) (UniProt P09936)
Test: biochemical concentration-response of UCH-L1 DUB inhibitors, hit verification (AID 1645867)
Settings: recombinant UCHL1 deubiquitinase activity assay

Sequence of Ubiquitin carboxyl-terminal hydrolase isozyme L1 (Homo sapiens) (P09936 whole entry, looked up): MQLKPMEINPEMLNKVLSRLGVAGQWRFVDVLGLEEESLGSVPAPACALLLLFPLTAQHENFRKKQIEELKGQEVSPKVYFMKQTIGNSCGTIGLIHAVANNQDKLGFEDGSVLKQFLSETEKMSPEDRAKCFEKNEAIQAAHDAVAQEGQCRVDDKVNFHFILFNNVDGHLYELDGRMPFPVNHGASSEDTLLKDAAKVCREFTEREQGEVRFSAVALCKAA

Compound | IC50
Cc1ccc(N(CC(=O)N2CCCc3ccccc32)S(=O)(=O)c2ccc3c(c2)OCCO3)cc1 | > 25 µM (inactive)
COc1ccc(CCn2c(-c3ccccc3)nc3c(c(=O)c4ccccc4n3C)c2=O)cc1OC | > 25 µM (inactive)
CC(C)NC(=O)Cn1ccn2nc(-c3ccc(Cl)cc3)cc2c1=O | > 25 µM (inactive)
Cc1c(Cl)cccc1NC(=O)Cn1cc(C(=O)C2CC2)c2ccccc21 | > 25 µM (inactive)
Cc1ccc(-n2nc3c(c2NC(=O)c2ccc(F)c(F)c2)CS(=O)(=O)C3)cc1 | > 25 µM (inactive)
COc1ccc(-c2cc3nc([C@H](C)NC(=O)Cc4ccccc4C)nn3cn2)cc1 | > 25 µM (inactive)
CC(C)CC[C@H]1O[C@@H](CC(=O)O)Cc2cc3c(c(O)c21)C(=O)c1sc(=O)n(C)c1C3=O | > 25 µM (inactive)
COc1c(O)cc(CC(=O)O)c(C(C)=O)c1O | 9.26 µM
COc1cn(-c2ccc(F)cc2)nc1C(=O)Nc1ccc(Cl)cc1Cl | 23.2 µM
COc1ccccc1OCCSc1nnc(-c2ccc3c(c2)OCCCO3)n1C | > 25 µM (inactive)
Cc1ccc(NC(=O)Nc2ccc(C)n(CC(=O)Nc3cccc(C)c3)c2=O)cc1 | > 25 µM (inactive)
O=C(COC(=O)c1cnccn1)Nc1ccc(Cl)cc1C(=O)c1ccccc1 | > 25 µM (inactive)
Nc1c(-c2nc(-c3ccccc3Cl)no2)nnn1-c1ccc(Cl)cc1 | > 25 µM (inactive)
O=C(COc1ccc(N2CC(C(=O)NCc3ccccc3)CC2=O)cc1)Nc1ccc(F)cc1 (configuration not stated) | > 25 µM (inactive)
COC1=C(C2=C(OC)C(=O)c3cc4c(c(O)c3C2=O)C(=O)OC(C)C4)C(=O)c2c(cc3c(c2O)C(=O)OC(C)C3)C1=O (configuration not stated) | 11.9 µM
O=C(Cn1c(COc2ccccc2)nc2ccccc21)Nc1cc(Cl)cc(Cl)c1 | > 25 µM (inactive)
O=C(c1ccc2cc[nH]c2c1)N1CCC(Nc2cccnc2)C1 (configuration not stated) | > 25 µM (inactive)
Cc1noc(C)c1CN1CCn2c1nc(-c1ccccc1)cc2=O | > 25 µM (inactive)
COc1cccc2cc(C(=O)Nc3nc(-c4ccncc4)cs3)oc12 | > 25 µM (inactive)
O=C(COc1ccc(N2CC(C(=O)NCc3ccccc3)CC2=O)cc1)Nc1ccccc1Cl (configuration not stated) | > 25 µM (inactive)
Cc1sc(N)nc1-c1ccc(C(C)(C)C)cc1 | > 25 µM (inactive)
CCOc1ccc(-n2ccnc(SCC(=O)Nc3ccccc3Cl)c2=O)cc1 | > 25 µM (inactive)
COc1cc(O)c2c(O)c3c(cc2c1)CC(C)OC3=O (configuration not stated) | > 25 µM (inactive)

Compound | IC50
Cc1ccccc1CCNCc1c(C(=O)O)n(Cc2ccc(Cl)cc2)c2ccccc12 | > 25 µM (inactive)
Cc1nn(-c2ccc(Cl)cc2)c2[nH]c(=O)c(CNc3ccc4c(c3)OCCO4)cc12 | > 25 µM (inactive)
CCC(C)N1CNc2c(c(=O)[nH]c(=O)n2Cc2ccco2)C1 (configuration not stated) | > 25 µM (inactive)
COc1ccc(CC(=O)Nc2c(NCc3ccccc3)c3ccccc3oc2=O)cc1 | > 25 µM (inactive)
Cc1c(-c2nsc(NC(=O)c3ccc(Cl)cc3)n2)nnn1-c1ccccc1F | > 25 µM (inactive)
COc1ccc(-c2cc3nc([C@H](C)NC(=O)Cc4cc(F)ccc4F)nn3cn2)cc1 | > 25 µM (inactive)
Cc1cccc(NC(=O)Cn2cnc(-c3noc(-c4ccccc4)n3)c2)c1C | > 25 µM (inactive)
N#Cc1c(-c2ccc(Cl)cc2)ccn2nc(CCC(=O)O)nc12 | > 25 µM (inactive)
COc1ccc2nc(N3CCN(C(=O)C4CCCCC4)CC3)sc2c1 | > 25 µM (inactive)
Cc1ccc(CNC(=O)Cn2c(=O)n(CCCC(=O)NCc3ccc(F)cc3)c(=O)c3ccccc32)cc1 | > 25 µM (inactive)
Cc1nc(-c2ccc(C(=O)Nc3ccc(F)cc3)cc2)cs1 | > 25 µM (inactive)
O=C(Nc1c(C(=O)N2CCCCCC2)oc2ccccc12)C1CCCC1 | > 25 µM (inactive)
Brc1ccc(Sc2cnns2)cc1 | > 25 µM (inactive)
Fc1cc(F)c2[nH]cc(-c3nnnn3-c3ccc4ccccc4c3)c2c1 | > 25 µM (inactive)
CCc1ccc(NC(=O)Cc2nnc3cc(-c4nc(C)no4)ccn23)cc1 | > 25 µM (inactive)
CC(C)=CCOC(C)(C)[C@H]1OC2CC[C@@]3(C)C(CCC4Cc5c([nH]c6ccccc56)[C@@]43C)C23OC3[C@@H]1O (some centres not stated) | > 25 µM (inactive)
Cc1ccc(-n2cc(-c3noc(C(=O)Nc4ccc(F)cc4C)n3)nn2)cc1 | > 25 µM (inactive)
O=C(Nc1ccc(-c2cn3ccsc3n2)cc1)c1ccc(Cl)c([N+](=O)[O-])c1 | > 25 µM (inactive)
CC(C)(NC(=O)C1CCCCC1)c1nc2c(c(C(N)=O)n1)OCCO2 | > 25 µM (inactive)
Cc1ccc2c(c1)c(=O)c(C(=O)c1ccccc1)cn2CC(=O)Nc1ccc2c(c1)OCO2 | > 25 µM (inactive)
CCOc1ccc2c(c1)c(=O)c(C(=O)c1ccccc1)cn2CC(=O)Nc1ccc(OC)cc1 | > 25 µM (inactive)
CN(c1ccccc1)S(=O)(=O)c1ccc(C(=O)Nc2cccc(C#N)c2)cc1 | > 25 µM (inactive)
CC(CCc1ccccc1)NCc1c(C(=O)O)n(Cc2ccccc2)c2ccccc12 (configuration not stated) | > 25 µM (inactive)

Compound | IC50
Cc1ccc(S(=O)(=O)N2CCCCC2)cc1NC(=O)c1ccc(C#N)cc1 | > 25 µM (inactive)
O=C(COc1ccccc1)Nc1ccc(-c2nc3cnccc3o2)c(O)c1 | > 25 µM (inactive)
Cc1nn(-c2ccc(F)cc2)c(C)c1S(=O)(=O)N1CCN(c2ncccn2)CC1 | > 25 µM (inactive)
Cc1cc(OCC(=O)Nc2ccc3c(c2)NC(=O)CO3)ccc1Cl | > 25 µM (inactive)
O=C(NCCc1nc2ccccc2n1CCOc1ccccc1Cl)C1CCCCC1 | > 25 µM (inactive)
Cc1nc(-c2ccccc2)n(Cc2ccc(F)cc2)c(=O)c1CCO | > 25 µM (inactive)
COc1ccc(CNC(=O)c2ccc3c(=O)nc4c(-c5cccc(C)c5)n[nH]n4c3c2)cc1 | > 25 µM (inactive)
Cc1cc(C(=O)NC2(O)C(=O)c3ccccc3C2=O)n(C)n1 | 20.6 µM
O=S1(=O)CCN(CC2CCCO2)c2c(Oc3ccccc3)nc(F)c(Cl)c21 (configuration not stated) | > 25 µM (inactive)
CCOc1ccc(C(c2c(NC(=O)c3ccccc3)sc(C)c2C)N2CCN(CCO)CC2)cc1 (configuration not stated) | > 25 µM (inactive)
O=C(NCc1ccco1)c1cccc(S(=O)(=O)N2CC(c3ccccc3)CC2=O)c1 (configuration not stated) | > 25 µM (inactive)
Cc1ccc(NC(=O)Cc2nnc3cc(-c4nc(C)no4)ccn23)cc1 | > 25 µM (inactive)
COc1ccc(OCC(=O)N(Cc2cccc3ccccc23)c2ccccn2)cc1 | > 25 µM (inactive)
CCc1ccccc1NC(=O)Cn1c(SCc2ccc(F)cc2)nc2cccnc21 | > 25 µM (inactive)
O=c1c2cc(Br)ccc2[nH]c(=S)n1Cc1cccnc1 | > 25 µM (inactive)
CN(Cc1ccccc1)S(=O)(=O)c1ccc2[nH]c(=O)[nH]c2c1 | > 25 µM (inactive)
Oc1cccc2c(-c3ccc(O)c4c(O)cccc34)ccc(O)c12 | 10.7 µM
Cn1c(=O)c2ncnnc2n(C)c1=O | 16.3 µM
O=C(Cn1nc2c3c4c(sc3ncn2c1=O)CCCCC4)Nc1ccc(Cl)cc1F | > 25 µM (inactive)
Cc1ccc2c(c1)N(C)C(=O)c1cc(NC(=O)c3ccc(F)cc3)ccc1O2 | > 25 µM (inactive)
Cc1cccc(CCN2C(=O)CCc3c(C)nc(C4CCCNC4)nc32)c1 (configuration not stated) | > 25 µM (inactive)
COc1cccc(NC(=O)Cn2c3ccccc3n3c(=O)cc(-c4ccccc4)nc23)c1 | > 25 µM (inactive)
COc1ccc(OC)c(C2=NO[C@]3(C(=O)Nc4ccccc43)[C@H]2C(=O)c2ccc(OC)c(OC)c2)c1 | > 25 µM (inactive)

Compound | IC50
Cc1ccccc1NC(=O)Cc1csc2nc(-c3ccc(F)cc3)cn12 | > 25 µM (inactive)
CCOc1ccc2c(c1)c(=O)c(C(=O)c1ccccc1)cn2CC(=O)Nc1ccc(Cl)cc1 | > 25 µM (inactive)
COc1ccccc1Nc1ncc(C(=O)NCCc2ccc(Cl)cc2)c2ccccc12 | > 25 µM (inactive)
CCc1[nH]c(=O)cc2cc(OC)c(OC)cc12 | 23.5 µM
COc1c(C(=O)Nc2nnc(C3CC3)s2)csc1Cl | > 25 µM (inactive)
CC1(C)Cc2nc(N3CCCC3)c(C#N)cc2CS1 | > 25 µM (inactive)
Cc1ccc(C(=O)c2cn(CC(=O)Nc3ccc4c(c3)OCO4)c3ccccc3c2=O)cc1 | > 25 µM (inactive)
NC(=O)C1(N2CCCCC2)CCN(CC(=O)Nc2cc(Cl)ccc2Cl)CC1 | > 25 µM (inactive)
CCC(C(=O)C(C)C(O)C(C)CCc1ccc(C)c(O)c1C(=O)O)C1OC(CC)(C2CCC(O)(CC)C(C)O2)CC1C (configuration not stated) | > 25 µM (inactive)
O=C1CSC(c2ccc(F)cc2)c2c(n(C3CCCCCC3)[nH]c2=O)N1 (configuration not stated) | > 25 µM (inactive)
O=C(Nc1c(C(=O)N2CCCCCC2)oc2ccccc12)C1CCCCC1 | > 25 µM (inactive)
CCn1cc2c(n1)c(=O)n(Cc1ccccc1)c(=O)n2CC(=O)Nc1ccc(C)cc1C | > 25 µM (inactive)
COc1ccc(OC)c2c(C)cc(N3CC(C)CC(C)C3)nc12 (configuration not stated) | > 25 µM (inactive)
COc1ccc(-c2nc(CNC(=O)c3ccccc3C)cs2)cc1 | > 25 µM (inactive)
O=c1c(-c2nc(-c3ccncc3)no2)cccn1Cc1c(F)cccc1Cl | > 25 µM (inactive)
CCCn1c(=O)c(-c2ccc(C(=O)NCc3ccc(OC)cc3)cc2)nc2cccnc21 | > 25 µM (inactive)
COc1ccc(NC(=O)C2C3C=CC4(O3)C2C(=O)N(CCc2ccccc2)C4C(=O)NC2CCCCC2)cc1 (configuration not stated) | > 25 µM (inactive)
O=[N+]([O-])c1ccc(S(=O)(=O)CC2CSc3nc4ccccc4n32)cc1 (configuration not stated) | > 25 µM (inactive)
CC[C@@H](C(=O)[C@@H](C)[C@@H](O)[C@H](C)CCc1ccc(C)c(O)c1C(=O)O)[C@@H]1O[C@](CC)([C@H]2CC[C@](O)(CC)[C@H](C)O2)C[C@@H]1C | > 25 µM (inactive)
O=c1cc(Cc2ccccc2)nc2c(-c3ccccc3)c(COc3ccccc3)[nH]n12 | > 25 µM (inactive)
Cc1nn(-c2ccccc2)c(C)c1S(=O)(=O)N1CCN(c2ccccn2)CC1 | > 25 µM (inactive)
Cc1ccc(NC(=O)C2C3C=CC4(O3)C2C(=O)N(C2CCCCC2)C4C(=O)NC2CCCCC2)cc1C (configuration not stated) | > 25 µM (inactive)
Cc1ccc(NC(=O)Cn2cc(C(=O)c3ccccc3)c(=O)c3cc(C)ccc32)cc1 | > 25 µM (inactive)
